In data set [1] the target is T1, Sodium- and chloride-dependent glycine transporter 1 (Homo sapiens) (UniProt P48067).
T1 sequence (whole entry): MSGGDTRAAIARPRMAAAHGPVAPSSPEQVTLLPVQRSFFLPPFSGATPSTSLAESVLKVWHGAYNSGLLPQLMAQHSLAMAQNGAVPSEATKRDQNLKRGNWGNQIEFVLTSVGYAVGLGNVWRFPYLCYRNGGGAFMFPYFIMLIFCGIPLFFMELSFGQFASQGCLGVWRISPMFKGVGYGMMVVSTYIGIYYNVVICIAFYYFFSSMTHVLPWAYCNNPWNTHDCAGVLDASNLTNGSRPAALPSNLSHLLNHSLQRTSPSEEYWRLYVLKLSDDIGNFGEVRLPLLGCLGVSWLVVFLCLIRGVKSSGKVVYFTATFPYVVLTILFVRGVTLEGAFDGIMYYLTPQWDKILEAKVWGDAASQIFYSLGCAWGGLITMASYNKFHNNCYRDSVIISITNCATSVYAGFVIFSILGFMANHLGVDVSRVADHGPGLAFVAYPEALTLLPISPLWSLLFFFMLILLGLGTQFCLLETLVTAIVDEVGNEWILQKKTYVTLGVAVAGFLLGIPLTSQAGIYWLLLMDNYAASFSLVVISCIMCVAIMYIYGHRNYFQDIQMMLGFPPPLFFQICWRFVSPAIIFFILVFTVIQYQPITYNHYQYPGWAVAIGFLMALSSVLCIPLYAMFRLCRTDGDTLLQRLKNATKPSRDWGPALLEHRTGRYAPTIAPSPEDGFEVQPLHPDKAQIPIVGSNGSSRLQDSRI
In words: (§1) Inhibition of Glyt1.

Data set [2] is described as follows: Clearance in dog at 0.25 mg/kg, iv by cassette dosing. The data set is classed as ADME, organism-based, Canis lupus familiaris. On the set-up: dose 0.25 mg/kg, route intravenous. The note with it: in vivo.
Data set [3] is described as follows: Clearance in dog at 0.5 mg/kg, iv and 1 mg/kg, po. The data set is classed as ADME, organism-based, Canis lupus familiaris. The conditions noted are these: in vivo.
Data set [4] is described as follows: Half life in dog at 0.5 mg/kg, iv and 1 mg/kg, po. The note with it: in vivo. The data set is classed as ADME, organism-based, Canis lupus familiaris.
A short description of data set [5]: Volume of distribution at steady state in dog at 0.5 mg/kg, iv and 1 mg/kg, po. The data set is classed as ADME, organism-based, Canis lupus familiaris. The conditions noted are these: in vivo, read-out: Vdss.
Data set [6] in a line: Oral bioavailability in dog at 1 mg/kg. The note with it: in vivo. The data set is classed as ADME, organism-based, Canis lupus familiaris.
The subject of data set [7] is MDR1 (human). The experiment in a line: Passive permeability from apical to basolateral side of pig LLC-PK1 cells expressing human MDR1. The data set is classed as ADME, cell-based, Sus scrofa. The conditions noted are these: read-out: permeability.
Data set [8] concerns Rattus norvegicus. In words: In vivo plasma occupancy by displacement of [35S]ACPPB from rat GlyT1 in po dosed rat brain. The data set is classed as functional. In general terms: In a radioligand displacement assay an active substance lowers the binding of a labelled ligand.
The species entered for data set [9] is Homo sapiens. In words: Activity of human P-glycoprotein.
The species entered for data set [10] is Rattus norvegicus. In words: Activity of rat P-glycoprotein.
For data set [11], the target named is T2, Sodium- and chloride-dependent glycine transporter 1 (Homo sapiens, UniProt P48067).
T2 sequence (P48067 whole entry): T1 sequence (whole entry)
The description is as §1.

The target in data set [12] is T3, Sodium- and chloride-dependent glycine transporter 2 (Homo sapiens, UniProt Q9Y345).
T3 sequence (Q9Y345 whole entry): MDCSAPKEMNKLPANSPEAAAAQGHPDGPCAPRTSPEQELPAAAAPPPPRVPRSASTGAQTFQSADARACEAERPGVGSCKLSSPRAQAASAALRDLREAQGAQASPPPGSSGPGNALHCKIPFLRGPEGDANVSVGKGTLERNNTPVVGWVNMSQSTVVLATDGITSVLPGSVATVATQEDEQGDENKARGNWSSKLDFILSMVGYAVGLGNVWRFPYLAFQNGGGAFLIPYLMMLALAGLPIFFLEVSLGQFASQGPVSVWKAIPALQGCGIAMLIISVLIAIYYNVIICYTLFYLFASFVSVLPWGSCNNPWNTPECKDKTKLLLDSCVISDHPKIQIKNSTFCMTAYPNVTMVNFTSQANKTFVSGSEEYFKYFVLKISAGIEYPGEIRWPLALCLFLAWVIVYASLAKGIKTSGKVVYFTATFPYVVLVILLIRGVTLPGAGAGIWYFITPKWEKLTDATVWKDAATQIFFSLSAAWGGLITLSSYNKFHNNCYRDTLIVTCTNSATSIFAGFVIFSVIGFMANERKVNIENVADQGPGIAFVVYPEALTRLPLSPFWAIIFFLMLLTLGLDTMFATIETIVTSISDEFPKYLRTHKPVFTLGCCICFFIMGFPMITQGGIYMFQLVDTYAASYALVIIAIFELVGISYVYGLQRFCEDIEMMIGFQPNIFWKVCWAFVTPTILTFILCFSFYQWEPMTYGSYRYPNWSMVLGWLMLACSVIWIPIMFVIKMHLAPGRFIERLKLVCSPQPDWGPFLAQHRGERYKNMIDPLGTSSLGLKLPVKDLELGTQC
In words: Inhibition of Glyt2.

Data set [13] addresses T4, Sodium- and chloride-dependent taurine transporter (Homo sapiens, UniProt P31641).
T4 sequence (P31641 whole entry): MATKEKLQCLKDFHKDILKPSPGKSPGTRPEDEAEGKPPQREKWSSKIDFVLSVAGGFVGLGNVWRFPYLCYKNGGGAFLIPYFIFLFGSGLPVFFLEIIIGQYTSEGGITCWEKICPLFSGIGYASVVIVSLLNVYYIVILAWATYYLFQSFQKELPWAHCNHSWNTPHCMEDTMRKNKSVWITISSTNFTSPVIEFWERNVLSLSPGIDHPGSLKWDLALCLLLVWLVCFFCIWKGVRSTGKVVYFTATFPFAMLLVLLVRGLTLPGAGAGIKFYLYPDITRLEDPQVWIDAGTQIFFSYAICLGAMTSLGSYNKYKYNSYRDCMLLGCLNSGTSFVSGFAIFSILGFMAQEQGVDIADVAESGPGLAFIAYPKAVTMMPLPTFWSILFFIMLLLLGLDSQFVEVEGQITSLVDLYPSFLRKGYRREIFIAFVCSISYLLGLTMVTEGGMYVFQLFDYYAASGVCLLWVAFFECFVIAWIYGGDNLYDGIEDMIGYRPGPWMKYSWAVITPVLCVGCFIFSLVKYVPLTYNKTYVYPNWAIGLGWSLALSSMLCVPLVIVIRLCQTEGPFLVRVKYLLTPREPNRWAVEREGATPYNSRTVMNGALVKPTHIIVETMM
The experiment in a line: Inhibition of taurine transporter.

Data set [14] can be described thus: Half life in dog at 0.25 mg/kg, iv by cassette dosing. The data set is classed as ADME, organism-based, Canis lupus familiaris. On the set-up: dose 0.25 mg/kg, route intravenous. The note with it: in vivo.

The source made the active and inactive calls. The calls are words filed in the database; no cut-off is given here. A value given as a limit tells only on which side of the number the result lay.

The values that follow come from ChEMBL document CHEMBL1152879, “Discovery of GlyT1 inhibitors with improved pharmacokinetic properties” (Bioorg Med Chem Lett, 2009).

For orientation: half-life means the time in which the quantity being followed falls by half. Read a high half-life as slow decline. The term bioavailability denotes the share of a dose that reaches the circulation, judged against a reference dose that is usually intravenous. A lower bioavailability goes with little systemic uptake. With `CCS(=O)(=O)N1CCC(c2ccccn2)([C@H](C)NC(=O)c2ccc(Cl)cc2Cl)CC1`, the Activity in [1] came to 11 nM. In addition, the clearance amounted to 3.6 mL/min/kg in data set [2] and 3.5 mL/min/kg in [3]. Also, the half-life in data set [4] is 5 h. Also, in [5], the Vd was 1.37 L/kg. Further, the bioavailability in [6] came out at 25%. Also, the Papp A→B in data set [7] was 37 ×10⁻⁶ cm/s. The Occ50 in [8] came to 150 nM. Besides, the outcome in data set [9] and in data set [10] was inactive.

The term IC50 denotes the concentration needed to halve the response being measured. Low readings indicate higher potency, high ones lower potency. Take `CS(=O)(=O)N1CCC(CNC(=O)c2ccc(Cl)cc2Cl)(c2ccccn2)CC1`: the values for the IC50 in data set [11], in data set [12] and in [13] were 300 nM, over 30000 nM and over 30000 nM, respectively. For the same molecule, the clearance in data set [2] was found to be 1 mL/min/kg. The same molecule gave a half-life in data set [14] of 8.4 h.

In the case of `CC(C)S(=O)(=O)N1CCC(CNC(=O)c2ccc(Cl)cc2Cl)(c2ccccn2)CC1`, the half-maximal inhibitory concentration (IC50) in data set [11] is 220 nM.

As for `O=C(NCC1(c2ccccn2)CCN(S(=O)(=O)C2CC2)CC1)c1ccc(Cl)cc1Cl`, the IC50 in [11] is 200 nM; in data set [12], over 30000 nM; in data set [13], over 30000 nM. Moreover, the clearance in data set [2] turned out to be 1.7 mL/min/kg. Besides, the half-life in data set [14] was 7.6 h.

Turning to `CN(C)S(=O)(=O)N1CCC(CNC(=O)c2ccc(Cl)cc2Cl)(c2ccccn2)CC1`, it took 77 nM to reach half-maximal inhibition in data set [11] (IC50). The clearance in data set [2] is 11.8 mL/min/kg. In data set [14], this molecule had a half-life of 1.9 h.

Take `O=C(NCC1(c2ccccn2)CCN(S(=O)(=O)C(F)(F)F)CC1)c1ccc(Cl)cc1Cl`: in [11], the half-inhibitory concentration (IC50) was over 5000 nM.

Take `CC(O)CS(=O)(=O)N1CCC(CNC(=O)c2ccc(Cl)cc2Cl)(c2ccccn2)CC1` (stereo unspecified): the half-maximal inhibitory concentration (IC50) in data set [11] stood at 86 nM.

On to `CCCS(=O)(=O)N1CCC(CNC(=O)c2ccc(Cl)cc2Cl)(C2CCCCC2O)CC1` (stereo unspecified), for which the figures for the concentration for half-maximal inhibition (IC50) in data set [11], in [12] and in data set [13] were 2.8 nM, over 30000 nM and over 30000 nM, respectively. The clearance in data set [2] was over 15 mL/min/kg. The same molecule came in with a half-life in [14] of under 2 h.

Molecule `CCCCS(=O)(=O)N1CCC(CNC(=O)c2ccc(Cl)cc2Cl)(c2ccccn2)CC1` had an IC50 in data set [11] of 120 nM.

As for `CCCS(=O)(=O)N1CCC(CNC(=O)c2ccc(Cl)cc2Cl)(CC2CCCCO2)CC1` (stereo unspecified), the values for the concentration for half-maximal inhibition (IC50) in [11], in data set [12] and in data set [13] were 2.9 nM, over 30000 nM and over 30000 nM, respectively. This molecule returned a clearance in data set [2] of over 15 mL/min/kg. This molecule came in with a half-life in [14] of under 2 h.

Turning to `CC(F)CS(=O)(=O)N1CCC(CNC(=O)c2ccc(Cl)cc2Cl)(c2ccccn2)CC1` (stereo unspecified), the results for the half-maximal inhibitory concentration (IC50) in data set [11], in data set [12] and in [13] were 9.7 nM, over 30000 nM and over 30000 nM, respectively.

`CCCS(=O)(=O)N1CCC(CNC(=O)c2ccc(Cl)cc2Cl)(C2CCCCC2OC(C)=O)CC1` (stereo unspecified) showed a concentration for half-maximal inhibition (IC50) in [11] of 17.7 nM. Besides, the clearance in data set [2] is over 15 mL/min/kg. The half-life in [14] was under 2 h.

With `O=C(NCC1(c2ccccn2)CCN(S(=O)(=O)CC(F)(F)F)CC1)c1ccc(Cl)cc1Cl`, in [11], the half-inhibitory concentration (IC50) worked out at 1070 nM. Moreover, in [2], the clearance is 2.5 mL/min/kg. The molecule further had a half-life in data set [14] of 4.9 h.

With `CCS(=O)(=O)N1CCC(CNC(=O)c2ccc(Cl)cc2Cl)(c2ccccn2)CC1`, the figures for the concentration for half-maximal inhibition (IC50) in data set [11], in data set [12] and in data set [13] were 57 nM, over 30000 nM and over 30000 nM, respectively. The molecule further showed a clearance in [2] of 1.4 mL/min/kg. Moreover, in data set [14], the half-life is 8 h.

Turning to `CCS(=O)(=O)N1CCC(CNC(=O)c2ccc(Cl)cc2Cl)(CC2CC2)CC1`, the values for the clearance in data set [2] and in data set [3] were 0.84 mL/min/kg and 2.3 mL/min/kg, respectively. Besides, the half-life in [4] is 11.8 h. Also, the Vd in data set [5] is 2.1 L/kg. In data set [6], this molecule came in with a bioavailability of 38%. In addition, in [8], the Occ50 was 260 nM. The outcome in data set [9] and in data set [10] was inactive.

For `CCCS(=O)(=O)N1CCC(CCOC)(CNC(=O)c2ccc(Cl)cc2Cl)CC1`, the 50% inhibitory concentration (IC50) in [11] is 26.5 nM; in data set [12], over 30000 nM; in [13], over 30000 nM. Further, in data set [2], the clearance is over 15 mL/min/kg. Besides, the half-life in data set [14] is under 2 h.

Regarding `CCCS(=O)(=O)N1CCC(CNC(=O)c2ccc(Cl)cc2Cl)(CC2CC2)CC1`, the IC50 was 30 nM in data set [11], over 30000 nM in [12] and over 30000 nM in [13]. Further, in data set [2], the clearance is over 15 mL/min/kg. The half-life in [14] is under 2 h.

For the molecule `CCCS(=O)(=O)N1CCC(CNC(=O)c2ccc(Cl)cc2Cl)(c2ccccn2)CC1`, the half-inhibitory concentration (IC50) in [12] and in [13] was over 30000 nM in each case. Moreover, the clearance in data set [2] was 15 mL/min/kg. Besides, the half-life in [14] was 2.3 h.

With `CCCS(=O)(=O)N1CCC(CNC(=O)c2ccc(Cl)cc2Cl)(N2CCC2)CC1`, the half-inhibitory concentration (IC50) in data set [11] amounted to 38.1 nM. Further, the clearance in data set [2] was over 15 mL/min/kg. Besides, in [14], the half-life is under 2 h.
